In patent US8846739B2, “TGR5 agonists” (Exelixis Patent Company LLC, priority 2009, dated 2014):

Legend:
h-TGR5 = target: T1, h-TGR5 (Homo sapiens, UniProt Q8TDU6); experiment: TGR5 cAMP Assay using Cisbio cAMP Dynamic 2 htrf assay kit; format: cell-based; conditions: hTGR5CRE-luc HEK 293 cells
T1 sequence (Q8TDU6 1-330): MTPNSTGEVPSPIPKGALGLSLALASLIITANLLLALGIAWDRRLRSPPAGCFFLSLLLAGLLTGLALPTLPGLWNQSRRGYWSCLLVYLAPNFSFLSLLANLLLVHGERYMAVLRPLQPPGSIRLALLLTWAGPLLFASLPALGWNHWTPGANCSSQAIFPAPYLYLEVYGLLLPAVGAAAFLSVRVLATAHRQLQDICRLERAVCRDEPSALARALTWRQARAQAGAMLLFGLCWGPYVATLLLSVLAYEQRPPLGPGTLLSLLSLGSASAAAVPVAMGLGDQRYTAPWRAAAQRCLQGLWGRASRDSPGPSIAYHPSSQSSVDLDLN

human TGR5 (h-TGR5) = target: T2, human TGR5 (h-TGR5) (Homo sapiens, UniProt Q8TDU6); experiment: TGR5/CRE-Luciferase Assay; format: cell-based; conditions: HEK 293 hTGR5/CRE-Luc cells, 6 hours incubation, read-out: CRE-Luc Agonist (EC50)
T2 sequence (Q8TDU6 1-330): T1 sequence (Q8TDU6 1-330)
Outline: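 HEK 293 CRE-Luciferase cells stably expressing the receptor, plated in DMEM 18-20 h before assay, then exposed to serially diluted compounds (DMEM with 5% DMSO) for 6 h. Luciferase read-out after lysis; EC50 from dose-response.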

SMILES | EC50 (h-TGR5) | EC50 (human TGR5 (h-TGR5))
COC(=O)[C@@H](C)N(CCC[N+](C)(C)C)S(=O)(=O)c1cc(F)c(CSc2ncc(C(C)(C)c3ccc(Cl)c(OC)c3)n2-c2ccc(F)cc2)c(F)c1 [Compound 14, (R)-3-(4-((5-(2-(4-chloro-3-methoxyphenyl)propan-2-yl)-1-(4-fluorophenyl)-1H-imidazol-2-ylthio)methyl)-3,5-difluoro-N-(1-methoxy-1-oxopropan-2-yl)phenylsulfonamido)-N,N,N-trimethylpropan-1-aminium 2,2,2-trifluoroacetate] | < 100 nM | < 100 nM
COc1cc(C(C)(C)c2cnc(SCc3c(F)cc(S(=O)(=O)N(CCC[N+](C)(C)C)CCC[N+](C)(C)C)cc3F)n2-c2ccc(F)cc2)ccc1Cl [Example 6i, 3,3′-({[4-({[5-{1-[4-chloro-3-(methyloxy)phenyl]-1-methylethyl}-1-(4-fluorophenyl)-1H-imidazol-2-yl]thio}methyl)-3,5-difluorophenyl]sulfonyl}imino)bis(N,N,N-trimethylpropan-1-aminium)] | < 100 nM | 100 to 1000 nM
COc1ccc(C(C)(C)c2cnc(SCc3c(F)cc(S(=O)(=O)NCCC[N+](C)(C)C)cc3F)n2-c2ccc(F)cc2)cc1Cl [Example 6n, 3-({[4-({[5-{1-[3-chloro-4-(methyloxy)phenyl]-1-methylethyl}-1-(4-fluorophenyl)-1H-imidazol-2-yl]thio}methyl)-3,5-difluorophenyl]sulfonyl}amino)-N,N,N-trimethylpropan-1-aminium] | < 100 nM | < 100 nM
COc1cc(-n2c(C(C)(C)c3ccc(Cl)c(Cl)c3)cnc2SCc2c(F)cc(C(=O)NCC[N+]34CCN(CC3)CC4)cc2Cl)ccc1F [Example 2b, 1-{2-[({3-chloro-4-[({5-[1-(3,4-dichlorophenyl)-1-methylethyl]-1-[4-fluoro-3-(methyloxy)phenyl]-1H-imidazol-2-yl}thio)methyl]-5-fluorophenyl}carbonyl)amino]ethyl}-4-aza-1-azoniabicyclo[2.2.2]octane] | < 100 nM | < 100 nM
CN([C@@H](CCCC[N+](C)(C)C)C(=O)O)S(=O)(=O)c1cc(F)c(CSc2ncc(C(C)(C)c3ccc(Cl)c(Cl)c3)n2-c2ccc(F)cc2)c(Cl)c1 [Compound 17h, (S)-5-carboxy-5-(3-chloro-4-((5-(2-(3,4-dichlorophenyl)propan-2-yl)-1-(4-fluorophenyl)-1H-imidazol-2-ylthio)methyl)-5-fluoro-N-methylphenylsulfonamido)-N,N,N-trimethylpentan-1-aminium 2,2,2-trifluoroacetate] | < 100 nM | < 100 nM
CC[N+](CC)(CC)CCCNS(=O)(=O)c1cc(F)c(CSc2ncc(C(C)(C)c3ccc(F)c(OC)c3)n2-c2ccc(F)cc2)c(Cl)c1 [Example 6o, 3-({[3-chloro-5-fluoro-4-({[5-{1-[4-fluoro-3-(methyloxy)phenyl]-1-methylethyl}-1-(4-fluorophenyl)-1H-imidazol-2-yl]thio}methyl)phenyl]sulfonyl}amino)-N,N,N-triethylpropan-1-aminium] | < 100 nM | < 100 nM
COc1cc(C(C)(C)c2cnc(SCc3c(F)cc(S(=O)(=O)N(C)[C@@H](CCCC[N+](C)(C)C)C(=O)O)cc3F)n2-c2ccc(F)cc2)ccc1Cl [Compound 17g, (S)-5-carboxy-5-(4-((5-(2-(4-chloro-3-methoxyphenyl)propan-2-yl)-1-(4-fluorophenyl)-1H-imidazol-2-ylthio)methyl)-3,5-difluoro-N-methylphenylsulfonamido)-N,N,N-trimethylpentan-1-aminium 2,2,2-trifluoroacetate] | < 100 nM | < 100 nM
COc1cc(-n2c(C(C)(C)c3ccc(Cl)c(Cl)c3)cnc2SCc2c(F)cc(S(=O)(=O)NCCC[N+](C)(C)C)cc2F)ccc1F [Example 6e, 3-[({4-[({5-[1-(3,4-dichlorophenyl)-1-methylethyl]-1-[4-fluoro-3-(methyloxy)phenyl]-1H-imidazol-2-yl}thio)methyl]-3,5-difluorophenyl}sulfonyl)amino]-N,N,N-trimethylpropan-1-aminium] | < 100 nM | < 100 nM
COc1cc(-n2c(C(C)(C)c3ccc(S(N)(=O)=O)c(Cl)c3)cnc2SCc2c(F)cc(C(=O)NCC[N+](C)(C)C)cc2Cl)ccc1F [Example 1a, 2-{[(4-{[(5-{1-[4-(aminosulfonyl)-3-chlorophenyl]-1-methylethyl}-1-[4-fluoro-3-(methyloxy)phenyl]-1H-imidazol-2-yl)thio]methyl}-3-chloro-5-fluorophenyl)carbonyl]amino}-N,N,N-trimethylethanaminium] | < 100 nM | < 100 nM
